Experimental data as given in patent publication US20260125382A1, “COMPOUNDS FOR INHIBITING OR DEGRADING CDK2 AND/OR CDK9 AND MEDICINAL USE THEREOF” (KOREA RESEARCH INSTITUTE OF CHEMICAL TECHNOLOGY, priority 2022, published 2026).

Columns and labels:
[1] = molecular target: T1, CDK2 (Homo sapiens, UniProt P24941); assay: CDK protein degradation activity (Western blotting), CDK2; type: cell-based; conditions: MDA-MB-231 cells, 16 hours, Western blot
T1 construct: endogenous in cells; host or cells: MDA-MB-231
In short: (§1)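 Degradation is judged from CDK2 and CDK9 band intensity relative to tubulin and DMSO-treated cells, after 16 h exposure of MDA-MB-231 cells to three compound concentrations (100 nM, 1 μM, 10 μM).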

[2] = molecular target: T2, CDK9 (Homo sapiens, UniProt P50750); assay: CDK protein degradation activity (Western blotting), CDK9; type: cell-based; conditions: MDA-MB-231 cells, 16 hours, Western blot
T2 construct: endogenous in cells; host or cells: MDA-MB-231
In short: as §1

T2 sequence (P50750 whole entry): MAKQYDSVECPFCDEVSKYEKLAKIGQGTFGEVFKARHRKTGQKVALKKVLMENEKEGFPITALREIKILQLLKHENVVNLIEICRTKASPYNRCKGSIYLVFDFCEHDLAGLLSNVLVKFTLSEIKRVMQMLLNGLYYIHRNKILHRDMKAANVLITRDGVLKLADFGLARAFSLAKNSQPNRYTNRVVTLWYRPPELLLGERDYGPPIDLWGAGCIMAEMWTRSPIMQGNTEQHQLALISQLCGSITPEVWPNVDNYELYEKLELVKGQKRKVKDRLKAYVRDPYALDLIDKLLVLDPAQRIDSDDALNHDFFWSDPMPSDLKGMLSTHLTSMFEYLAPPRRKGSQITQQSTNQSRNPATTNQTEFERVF

Row | Compound | Enzyme degradation CDK2 (% remaining) @ 0.1 μM [1] | Enzyme degradation CDK2 (% remaining) @ 1 μM [1] | Enzyme degradation CDK2 (% remaining) @ 10 μM [1] | Enzyme degradation CDK9 (% remaining) @ 0.1 μM [2] | Enzyme degradation CDK9 (% remaining) @ 1 μM [2] | Enzyme degradation CDK9 (% remaining) @ 10 μM [2]
1 | O=C1CC[C@H](N2C(=O)c3cc(F)c(N4CCC(CN5CCC(CCNc6ncnc7c6ncn7[C@H]6C[C@@H](NC(=O)c7c(Cl)cccc7Cl)C6)CC5)CC4)cc3C2=O)C(=O)N1 [Compound 397, 2,6-dichloro-N-((1s,3s)-3-(6-((2-(1-((1-(2-(2,6-dioxopiperidin-3-yl)-6-fluoro-1,3-dioxoisoindolin-5-yl)piperidin-4-yl)methyl)piperidin-4-yl)ethyl)amino)-9H-purin-9-yl)cyclobutyl)benzamide] | 50% | 30% | 30% | 70% | 10% | 10%
2 | O=C1CC[C@H](N2C(=O)c3ccc(NCC(=O)N4CCC(CN5CCN(c6ccc(Nc7ncnc8c7ncn8C7CC(NC(=O)c8c(Cl)cccc8Cl)C7)cc6)CC5)CC4)cc3C2=O)C(=O)N1 (stereo partly drawn) [Compound 164, 2,6-dichloro-N-((1s,3s)-3-(6-((4-(4-((1-((2-(2,6-dioxopiperidin-3-yl)-1,3-dioxoisoindolin-5-yl)glycyl)piperidin-4-yl)methyl)piperazin-1-yl)phenyl)amino)-9H-purin-9-yl)cyclobutyl)benzamide] | 30/30/30% | 30/30/30% | 30/30/30% | 0/0/0% | 0/0/0% | 0/0/0%
3 | O=C1CC[C@H](N2C(=O)c3cccc(OCC(=O)N4CCC(CN5CCC(c6ccc(Nc7ncnc8c7ncn8[C@H]7C[C@@H](NC(=O)Cc8ccccc8)C7)cc6)CC5)CC4)c3C2=O)C(=O)N1 [Compound 287, N-((1s,3s)-3-(6-((4-(1-((1-(2-((2-(2,6-dioxopiperidin-3-yl)-1,3-dioxoisoindolin-4-yl)oxy)acetyl)piperidin-4-yl)methyl)piperidin-4-yl)phenyl)amino)-9H-purin-9-yl)cyclobutyl)-2-phenylacetamide] | 0/0/0% | 0/0/0% | 0/0/0% | 0/0/0% | 0/0/0% | 0/0/0%
4 | O=C1CC[C@H](N2C(=O)c3ccc(N4CC(C(=O)N5CCC(CN6CCC(CCNc7ncnc8c7ncn8[C@H]7C[C@@H](NC(=O)Cc8ccccc8)C7)CC6)CC5)C4)cc3C2=O)C(=O)N1 [Compound 411, N-((1s,3s)-3-(6-((2-(1-((1-(1-(2-(2,6-dioxopiperidin-3-yl)-1,3-dioxoisoindolin-5-yl)azetidin-3-carbonyl)piperidin-4-yl)methyl)piperidin-4-yl)ethyl)amino)-9H-purin-9-yl)cyclobutyl)-2-phenylacetamide] | 40/40/40% | 40/40/40% | 40/40/40% | 10/10/10% | 10/10/10% | 10/10/10%
5 | O=C1CC[C@H](N2C(=O)c3ccc(N4CC(C(=O)N5CCN(CCC6CCN(c7ccc(Nc8ncnc9c8ncn9[C@H]8C[C@@H](NC(=O)Cc9ccccc9)C8)cc7)CC6)CC5)C4)cc3C2=O)C(=O)N1 [Compound 362, N-((1s,3s)-3-(6-((4-(4-(2-(4-(1-(2-(2,6-dioxopiperidin-3-yl)-1,3-dioxoisoindolin-5-yl)azetidin-3-carbonyl)piperazin-1-yl)ethyl)piperidin-1-yl)phenyl)amino)-9H-purin-9-yl)cyclobutyl)-2-phenylacetamide] | 90% | 80% | 70% | 40% | 0% | 0%
6 | Cc1cccc(C(=O)N[C@H]2C[C@@H](n3cnc4c(NC5CCN(CCC6CCN(C(=O)CNc7cccc8c7C(=O)N(C7CCC(=O)NC7=O)C8=O)CC6)CC5)ncnc43)C2)n1 (stereo partly drawn) [Compound 34, N-((1s,3s)-3-(6-((1-(2-(1-((2-(2,6-dioxopiperidin-3-yl)-1,3-dioxoisoindolin-4-yl)glycyl)piperidin-4-yl)ethyl)piperidin-4-yl)amino)-9H-purin-9-yl)cyclobutyl)-6-methylpicolinamide] | 50% | 50% | 100% | 0% | 0% | 10%
7 | N#Cc1cccc(C(=O)N[C@H]2C[C@@H](n3cnc4c(Nc5ccc(N6CCN(CC7CCN(c8cc9c(cc8F)C(=O)N(C8CCC(=O)NC8=O)C9=O)CC7)CC6)cc5)ncnc43)C2)n1 (stereo partly drawn) [Compound 414, 6-cyano-N-((1s,3s)-3-(6-((4-(4-((1-(2-(2,6-dioxopiperidin-3-yl)-6-fluoro-1,3-dioxoisoindolin-5-yl)piperidin-4-yl)methyl)piperazin-1-yl)phenyl)amino)-9H-purin-9-yl)cyclobutyl)picolinamide] | 20/20/20% | 20/20/20% | 20/20/20% | 10/10/10% | 10/10/10% | 10/10/10%
8 | O=C1CCC(c2ccc(OCC(=O)N3CCC4(CC3)CC(N3CCN(c5ccc(Nc6ncnc7c6ncn7[C@H]6C[C@@H](NC(=O)Cc7ccccc7)C6)cc5)CC3)C4)cc2)C(=O)N1 (stereo partly drawn) [Compound 205, N-((1s,3s)-3-(6-((4-(4-(7-(2-(4-(2,6-dioxopiperidin-3-yl)phenoxy)acetyl)-7-azaspiro[3.5]nonan-2-yl)piperazin-1-yl)phenyl)amino)-9H-purin-9-yl)cyclobutyl)-2-phenylacetamide] | 30/30/30% | 30/30/30% | 30/30/30% | 0/0/0% | 0/0/0% | 0/0/0%
9 | O=C1CC[C@H](N2C(=O)c3cc(F)c(N4CCC(C(=O)N5CCC6(CC5)CC(N5CCN(c7ccc(Nc8ncnc9c8ncn9C8CC(NC(=O)Cc9ccccc9)C8)cc7)CC5)C6)CC4)cc3C2=O)C(=O)N1 (stereo partly drawn) [Compound 460, N-((1s,3s)-3-(6-((4-(4-(7-(1-(2-(2,6-dioxopiperidin-3-yl)-6-fluoro-1,3-dioxoisoindolin-5-yl)piperidin-4-carbonyl)-7-azaspiro[3.5]nonan-2-yl)piperazin-1-yl)phenyl)amino)-9H-purin-9-yl)cyclobutyl)-2-phenylacetamide] | 40/40/40% | 40/40/40% | 40/40/40% | 0/0/0% | 0/0/0% | 0/0/0%
10 | O=C1CC[C@H](N2C(=O)C=C(Nc3cccc(CC(=O)N4CCC5(CC4)CC(N4CCN(c6ccc(Nc7ncnc8c7ncn8[C@H]7C[C@@H](NC(=O)Cc8ccccc8)C7)cc6)CC4)C5)c3)C2=O)C(=O)N1 [Compound 192, N-((1s,3s)-3-(6-((4-(4-(7-(2-(3-((1-(2,6-dioxopiperidin-3-yl)-2,5-dioxo-2,5-dihydro-1H-pyrrol-3-yl)amino)phenyl)acetyl)-7-azaspiro[3.5]nonan-2-yl)piperazin-1-yl)phenyl)amino)-9H-purin-9-yl)cyclobutyl)-2-phenylacetamide] | 70% | 70% | 50% | 20% | 20% | 10%
11 | Cc1cccc(C(=O)N[C@H]2C[C@@H](n3cnc4c(NCc5cccc(OCCCN6CCN(C(=O)COc7cccc8c7C(=O)N([C@H]7CCC(=O)NC7=O)C8=O)CC6)c5)ncnc43)C2)n1 [Compound 101, N-((1s,3s)-3-(6-((3-(3-(4-(2-((2-(2,6-dioxopiperidin-3-yl)-1,3-dioxoisoindolin-4-yl)oxy)acetyl)piperazin-1-yl)propoxy)benzyl)amino)-9H-purin-9-yl)cyclobutyl)-6-methylpicolinamide] | 70% | 50% | 40% | 80% | 30% | 30%
12 | O=C1CC[C@@H](c2cccc(OCC(=O)N3CCC(OCCN4CCN(c5ccc(Nc6ncnc7c6ncn7C6CC(NC(=O)Cc7ccccc7)C6)cc5)CC4)CC3)c2)C(=O)N1 (stereo partly drawn) [Compound 251, N-((1s,3s)-3-(6-((4-(4-(2-((1-(2-(3-(2,6-dioxopiperidin-3-yl)phenoxy)acetyl)piperidin-4-yl)oxy)ethyl)piperazin-1-yl)phenyl)amino)-9H-purin-9-yl)cyclobutyl)-2-phenylacetamide] | 0/0/0% | 0/0/0% | 0/0/0% | 30% | 0% | 0%
